Experimental data taken from ChEMBL document CHEMBL1201862, “PubChem BioAssay data set” (2004).
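In this assay, cells in 96-well plates receive the compound at five concentrations for 48 hours. Endpoints are linearly interpolated between the surrounding concentrations. GI50 is the concentration that inhibits growth by half.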 Calls of active or inactive are those of the source. Rule as the data show it: active = GI50 up to about 1.1 µM and inactive = higher.

Columns and labels:
Test in all cases: NCI-60 cell line screen, 48 h
786-0 = test system: 786-0
A498 = test system: A498
A549 = test system: A549
ACHN = test system: ACHN
BT-549 = test system: BT-549
CAKI-1 = test system: CAKI-1
CCRF-CEM = test system: CCRF-CEM
COLO 205 = test system: COLO 205
DU-145 = test system: DU-145
EKVX = test system: EKVX
HCC 2998 = test system: HCC 2998
HCT-116 = test system: HCT-116
HCT-15 = test system: HCT-15
HL-60 = test system: HL-60
HOP-62 = test system: HOP-62
HOP-92 = test system: HOP-92
HT-29 = test system: HT-29
Hs-578T = test system: Hs-578T
IGROV-1 = test system: IGROV-1
K562 = test system: K562
KM12 = test system: KM12
LOX IMVI = test system: LOX IMVI
M14 = test system: M14
MCF7 = test system: MCF7
MDA-MB-231 = test system: MDA-MB-231
MDA-MB-435 = test system: MDA-MB-435
MDA-N = test system: MDA-N
MOLT-4 = test system: MOLT-4
Malme-3M = test system: Malme-3M
NCI-H226 = test system: NCI-H226
NCI-H23 = test system: NCI-H23
NCI-H460 = test system: NCI-H460
NCI-H522 = test system: NCI-H522
NCI/ADR-RES = test system: NCI/ADR-RES
OVCAR-3 = test system: OVCAR-3
OVCAR-4 = test system: OVCAR-4
OVCAR-5 = test system: OVCAR-5
OVCAR-8 = test system: OVCAR-8
PC-3 = test system: PC-3
RPMI-8226 = test system: RPMI-8226
RXF 393 = test system: RXF 393
SF-268 = test system: SF-268
SF-295 = test system: SF-295
SK-MEL-28 = test system: SK-MEL-28
SK-MEL-2 = test system: SK-MEL-2
SK-MEL-5 = test system: SK-MEL-5
SK-OV-3 = test system: SK-OV-3
SN12C = test system: SN12C
SNB-19 = test system: SNB-19
SNB-75 = test system: SNB-75
SR = test system: SR
SW-620 = test system: SW-620
T47D = test system: T47D
TK-10 = test system: TK-10
U-251 = test system: U-251
UACC-257 = test system: UACC-257
UACC-62 = test system: UACC-62
UO-31 = test system: UO-31
SF-539 = test system: SF-539

Measured: GI50

C#C[C@]1(O)CC[C@H]2[C@@H]3CCC4=C/C(=N/OC(=O)c5cccc6c(=O)c7ccccc7[nH]c56)CCC4[C@H]3CC[C@@]21CC (some centres undefined)
inactive: 786-0 4.91 µM | A498 10.1 µM | A549 41.7 µM | ACHN 26.2 µM | BT-549 17 µM | CAKI-1 32.4 µM | CCRF-CEM 8.05 µM | COLO 205 37.2 µM | DU-145 55.2 µM | EKVX 22.2 µM | HCC 2998 26.5 µM | HCT-116 25 µM | HL-60 2.44 µM | HOP-62 49.1 µM | HOP-92 42.6 µM | HT-29 8.28 µM | Hs-578T > 100 µM | IGROV-1 27.3 µM | K562 10.9 µM | KM12 20.1 µM | LOX IMVI 15.7 µM | M14 34.5 µM | MCF7 25.1 µM | MDA-MB-231 54.8 µM | MDA-MB-435 26.5 µM | MDA-N 26.4 µM | MOLT-4 4.3 µM | Malme-3M 34.7 µM | NCI-H226 > 48.9 µM | NCI-H23 26.4 µM | NCI-H460 14.3 µM | NCI-H522 20.8 µM | NCI/ADR-RES 15.8 µM | OVCAR-3 18.7 µM | OVCAR-4 49.3 µM | OVCAR-5 > 100 µM | OVCAR-8 19.8 µM | PC-3 18.5 µM | RPMI-8226 1.37 µM | RXF 393 2.34 µM | SF-268 66.4 µM | SF-295 3.69 µM | SK-MEL-28 22 µM | SK-MEL-2 32.4 µM | SK-MEL-5 14.9 µM | SK-OV-3 63.1 µM | SN12C 39.6 µM | SNB-19 69.3 µM | SNB-75 9.18 µM | SR 3.25 µM | SW-620 24 µM | T47D 24.8 µM | TK-10 > 100 µM | U-251 9.89 µM | UACC-257 11.3 µM | UACC-62 20.4 µM | UO-31 23.2 µM
13.4 µM: HCT-15

CN(C)Cc1cc(C(=O)/C=C/c2ccc(O)cc2)cc(CN(C)C)c1O
inactive: 786-0 34.4 µM | A498 31.8 µM | A549 > 100 µM | ACHN 20.9 µM | BT-549 79.4 µM | CAKI-1 28.8 µM | CCRF-CEM 24.8 µM | COLO 205 19.4 µM | DU-145 53.6 µM | EKVX 70 µM | HCC 2998 79.4 µM | HCT-116 38.2 µM | HL-60 19.1 µM | HOP-62 38 µM | HOP-92 30.2 µM | HT-29 79.3 µM | Hs-578T 60.5 µM | IGROV-1 45.4 µM | K562 29.5 µM | KM12 24.4 µM | LOX IMVI 29.7 µM | M14 27.6 µM | MCF7 43.2 µM | MDA-MB-231 25.2 µM | MDA-MB-435 35.4 µM | MDA-N 37.7 µM | MOLT-4 26.7 µM | NCI-H226 > 100 µM | NCI-H23 79.6 µM | NCI-H460 23.7 µM | NCI-H522 23.4 µM | NCI/ADR-RES > 100 µM | OVCAR-3 18.9 µM | OVCAR-5 42.1 µM | OVCAR-8 81.7 µM | PC-3 47.4 µM | RPMI-8226 17.9 µM | RXF 393 59.8 µM | SF-268 72.4 µM | SF-295 86.3 µM | SF-539 55 µM | SK-MEL-28 25.9 µM | SK-MEL-2 30.3 µM | SK-MEL-5 18.5 µM | SN12C 23 µM | SNB-19 > 100 µM | SNB-75 26.7 µM | SR 23.1 µM | SW-620 39.4 µM | T47D 49.9 µM | TK-10 53.7 µM | U-251 16 µM | UACC-257 46.2 µM | UACC-62 36.6 µM | UO-31 63 µM
44.5 µM: HCT-15
